US20100119502A1, “THERAPY REGIMENS, DOSING REGIMENS AND STABLE MEDICAMENTS FOR THE TREATMENT OF POMPE DISEASE” (AMICUS THERAPEUTICS, INC., priority 2008, published 2010)
Entries after “also recorded” stand apart in the source; their conditions may differ. Counter-ions that a name gives are not always drawn.

Experiments:
[1] = molecular target: T1, recombinant human GAA (Myozyme®, Genzyme Corp.) (Homo sapiens, UniProt P10253); test: SYPRO Orange thermal stability assay of rhGAA; format: binding
T1 construct: purchased Genzyme Corp; host or cells: Chinese hamster ovary cell line
Excerpt: The thermal stability assay utilizes heat to induce protein denaturation, which is monitored using a SYPRO Orange dye that fluoresces upon binding to hydrophobic amino acids (which are not exposed in a folded protein).
FIG. 2B depicts a parallel SYPRO Orange thermal stability experiment to determine if the loss of enzyme activity shown in FIG. 2A, particularly the loss of Myozyme activity at ER pH (7.4), correlates with protein unfolding and denaturation. […]
Denaturation is monitored using a SYPRO Orange dye that fluoresces upon binding to hydrophobic amino acids (which are not exposed in a folded protein).
The thermal stability was performed at pH 7.4 for two formulations, which corresponds to the pH of the ER.
In order to determine if loss of initial enzyme activity is correlated to failure to maintain a proper conformation, a SYPRO Orange thermal stability experiment was performed on the samples above as generally described in Example 1. […] Based on this experiment, the % of GAA folded was estimated and plotted in FIG. 2B. […]

rhGAA (Myozyme™) = molecular target: T2, rhGAA (Myozyme™) (Homo sapiens, UniProt P10253); test: rhGAA enzyme inactivation in citrate anti-coagulated whole blood at 37° C.; format: in vitro ADME; details: for rhGAA enzyme inactivated: whole blood 37° C., no 1-DNJ-HCl
T2 construct: purchased Genzyme Corp; host or cells: Chinese hamster ovary cell line
Procedure: Aliquots were collected at 0, 2, 4, 8 and 24 hrs and centrifuged to obtain plasma. These plasma samples were then diluted in potassium acetate buffer (pH 4.0) and assayed for GAA activity using the 4-methylumbeliferyl-α-glucose (4-MUG) fluorogenic substrate. The measured GAA activity for individual samples at each time point was normalized to the 0 hr and expressed as % of initial activity. Data from 4 independent experiments were analyzed to obtain the mean (and standard deviation) and plotted versus time to assess the loss of enzyme activity over this time course.
Aliquots were collected at 0, 3 and 6 hrs and centrifuged to obtain plasma. These plasma samples were then diluted in potassium acetate buffer (pH 4.0) and assayed for GAA activity using the 4-methylumbeliferyl-a-glucose (4-MUG) fluorogenic substrate. The measured GAA activity for individual samples at each time point was normalized to the 0 hr and expressed as % of initial activity.
Based on human plasma PK data, these concentrations are readily obtainable in the clinic.

GAA KO mice [2] = test: Tissue glycogen reduction in GAA KO mice; format: in vivo; details: Myozyme co-administered with 30 mg/kg 1-DNJ-HCl
Procedure: To prevent anaphylaxis, before the third and fourth Myozyme™ injection, diphenhydramine (10 mg/kg intraperitoneally) was administered 10 min before Myozyme™ injection. […] Mice were euthanized 14 days after the last Myozyme™ administration. Glycogen levels in heart, diaphragm, soleus, and quadriceps were then measured. […] Supernatants were heat denatured (99° C. for 10 min) to remove endogenous amyloglucosidase activity. […] The reaction was stopped by inactivation at 100° C. for 10 min. […] Simultaneously, the amount of protein was determined in tissue homogenates using the Micro BCA Protein Assay (Pierce, Rockford, Ill.) following the manufacturer's instructions. The glycogen content of each sample was normalized to protein, and data were finally expressed as micrograms of glycogen per milligram of protein (μg/mg protein).

GAA KO mice [3] = test: In vivo uptake of Myozyme in GAA KO mice with and without oral 1-DNJ-HCl (4-MUG tissue GAA activity)
Excerpt: Enzymatic activity as determined using a 4-MUG fluorogenic substrate assay.

GAA KO mouse = test: GAA enzyme activity in heart and diaphragm of GAA KO mouse (rhGAA uptake); format: in vivo; details: rhGAA co-administered with 1-DNJ-HCl vs ERT monotherapy
Procedure: Heart and Diaphragm tissue homogenates were harvested and rhGAA activity was measured using the fluorogenic substrate (4-MUG).

[4] = stored at 2 to 8° C.; cited from earlier work

rhGAA activity in whole blood (rhGAA (Myozyme™); rhGAA with 50 μM 1-DNJ-HCl, 37° C., up to 24 hrs) | rhGAA uptake in the heart and diaphragm (GAA activity) (GAA KO mouse) | rhGAA enzyme inactivated (rhGAA (Myozyme™); by 4 hrs) | rhGAA enzyme inactivated (rhGAA (Myozyme™); by 8 hrs) | rhGAA enzyme inactivated (rhGAA (Myozyme™); by 24 hrs) | Molecule | GAA folding / denaturation (% of GAA folded) ([1]; 37° C. over 24 hours, Myozyme 0.9 μM, pH 7.4, with or without 100 μM 1-DNJ-HCl) | stability of rhGAA (heat required to denature) ([1]; pH 7.4, Myozyme plus 100 μM 1-DNJ-HCl vs Myozyme alone, hydrochloride) | stabilizing rhGAA and preventing enzyme inactivation in whole blood (rhGAA (Myozyme™); high 1-DNJ-HCl concentrations (50 and 100 μM)) | tissue glycogen reduction compared to Myozyme alone (GAA KO mice [2]) | Myozyme tissue uptake (as a measure of GAA activity) with coadministered 1-DNJ-HCl (GAA KO mice [3]; Myozyme 10 mg/kg IV weekly up to 3 weeks plus 10, 100, 1000 mg/kg oral 1-DNJ-HCl) | stability of rhGAA by pH ([1]; Myozyme alone, pH 5.2 vs pH 7.4) | time the product is stable on storage [4] | Myozyme tissue uptake (as a measure of GAA activity) (GAA KO mice [3]; Myozyme 10 mg/kg IV weekly, 7 days post injection)
remained completely active | increased | – | – | – | OC[C@H]1NC[C@H](O)[C@@H](O)[C@@H]1O [1-DNJ-HCl, 1-deoxynorjirimycin hydrochloride] | can prevent GAA denaturation and loss of enzyme activity | required significantly more heat to denature; also recorded: significantly increased | best for stabilizing rhGAA and preventing enzyme inactivation | significantly greater tissue glycogen reduction | dose-dependent increase in Myozyme uptake | – | – | –
– | – | approximately 40% | ~70% | ~100% | Myozyme: alglucosidase alfa, human acid α-glucosidase produced by recombinant DNA technology in a Chinese hamster ovary cell line (Genzyme) | – | – | – | – | – | much more stable at lysosomal pH (5.2) than at ER pH (7.4) | up to 24 hours | declined at 7 days post injection
